Laboratory results taken from patent US10689354B2, “Aminoazole derivative” (Teijin Pharma Limited, priority 2015, dated 2020).

How the values were obtained:
[1] = biological target: T1, androgen receptor (AR-LBD) (Rattus norvegicus, UniProt P15207); assay: Evaluation of androgen receptor affinity (PolarScreen Androgen Receptor Competitor Assay Kit, Red; fluorescence polarization); details: 22° C. for 5 hours, relative to binding rate of 1 μM DHT, read-out: AR affinity (pEC50) (converted)
T1 construct: 5 μL of 2×AR-LBD/Fluoromone AL Red Complex contained in the kit; purchased Invitrogen
T1 sequence (P15207 651-882 limits assumed): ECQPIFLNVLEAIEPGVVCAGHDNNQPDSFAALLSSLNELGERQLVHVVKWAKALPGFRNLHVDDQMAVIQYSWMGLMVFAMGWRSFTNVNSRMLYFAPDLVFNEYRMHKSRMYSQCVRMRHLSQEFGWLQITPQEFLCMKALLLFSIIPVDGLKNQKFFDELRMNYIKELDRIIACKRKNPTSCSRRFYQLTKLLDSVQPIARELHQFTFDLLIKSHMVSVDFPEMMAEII
Outline: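 Fluorescence polarization competition assay: compound was incubated in duplicate with the kit's AR-LBD/Fluoromone AL Red complex for 5 h at 22 °C. Binding was expressed relative to 1 μM DHT, and pEC50 was derived by 4-parameter fit.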

human androgen receptor = biological target: T2, human androgen receptor (Homo sapiens, UniProt P10275); assay: Reporter assay of an androgen receptor responsive sequence (luciferase, transiently transfected HEK293 cells); assay type: cell-based; details: 24 hours incubation, relative to activity of 100 nM DHT, read-out: AR transcriptive activity (pEC50) (converted)
T2 construct: expressed in transfected cells; host or cells: HEK293
T2 sequence (P10275 1-920): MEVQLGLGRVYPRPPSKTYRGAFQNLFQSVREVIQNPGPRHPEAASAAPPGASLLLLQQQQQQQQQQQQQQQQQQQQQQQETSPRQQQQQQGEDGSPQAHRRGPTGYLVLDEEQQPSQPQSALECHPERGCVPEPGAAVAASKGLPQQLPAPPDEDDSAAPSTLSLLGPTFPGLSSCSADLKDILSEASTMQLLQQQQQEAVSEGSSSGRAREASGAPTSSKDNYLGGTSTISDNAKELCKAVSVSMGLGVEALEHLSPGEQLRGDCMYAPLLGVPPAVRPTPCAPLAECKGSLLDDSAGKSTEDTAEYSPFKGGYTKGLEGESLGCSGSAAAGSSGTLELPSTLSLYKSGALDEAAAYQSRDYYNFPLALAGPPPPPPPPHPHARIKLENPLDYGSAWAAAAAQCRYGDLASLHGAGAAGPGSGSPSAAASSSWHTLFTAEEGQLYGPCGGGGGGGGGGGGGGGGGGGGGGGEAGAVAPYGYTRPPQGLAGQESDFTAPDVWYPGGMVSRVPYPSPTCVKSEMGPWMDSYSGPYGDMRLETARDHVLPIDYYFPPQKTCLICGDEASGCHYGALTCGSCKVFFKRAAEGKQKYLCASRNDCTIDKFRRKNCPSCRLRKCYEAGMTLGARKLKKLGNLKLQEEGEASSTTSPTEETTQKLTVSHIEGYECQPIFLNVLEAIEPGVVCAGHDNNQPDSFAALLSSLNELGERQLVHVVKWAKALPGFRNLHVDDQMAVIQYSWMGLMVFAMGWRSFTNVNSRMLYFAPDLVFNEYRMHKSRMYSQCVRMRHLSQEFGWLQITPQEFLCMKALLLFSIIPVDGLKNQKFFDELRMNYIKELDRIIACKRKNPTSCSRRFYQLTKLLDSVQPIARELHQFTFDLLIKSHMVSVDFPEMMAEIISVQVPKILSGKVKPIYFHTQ
Outline: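 HEK293 cells transiently transfected for 3 h with ARE-firefly luciferase, full-length human AR and TK-Renilla plasmids, then exposed to compound for 24 h at 37 °C in 5% charcoal-treated FBS/DMEM. Dual-Glo luminescence read; pEC50 from 4-parameter fit relative to 100 nM DHT.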

SMILES	EC50 [1]	EC50 (human androgen receptor)
Cc1oc(N(CCc2ccc(Cl)cc2)Cc2ccccc2OC(F)F)nc1C(=O)NS(C)(=O)=O [Compound 543, 2-[2-(4-chlorophenyl)ethyl-[[2-(difluoromethoxy)phenyl]methyl]amino]-5-methyl-N-methylsulfonyl-oxazole-4-carboxamide]	50.1 nM	1260 nM
Cc1sc(N(CCc2ccc(Cl)cc2)Cc2ccc(Cl)cc2)nc1C(=O)NS(C)(=O)=O [Compound 692, 2-[2-(4-chlorophenyl)ethyl-[(4-chlorophenyl)methyl]amino]-5-methyl-N-methylsulfonyl-thiazole-4-carboxamide]	20 nM	79.4 nM
Cc1sc(N(Cc2ccc(Cl)cc2)Cc2csc3cc(C#N)ccc23)nc1C(=O)NS(C)(=O)=O [Example 305, 2-[(4-chlorophenyl)methyl-[(6-cyanobenzothiophen-3-yl)methyl]amino]-5-methyl-N-methylsulfonyl-thiazole-4-carboxamide]	> 2000 nM	> 10000 nM
Cc1sc(N(Cc2ccccc2)c2ccc(C#N)cc2)nc1C(=O)NS(=O)(=O)Cc1ccccn1 [Compound 396, 2-(N-benzyl-4-cyano-anilino)-5-methyl-N-(2-pyridylmethylsulfonyl)thiazole-4-carboxamide]	316 nM	6310 nM
COCCCS(=O)(=O)NC(=O)c1nc(N(Cc2ncc(Cl)cc2F)c2ccc(C#N)cc2)sc1C [Example 169, 2-[N-[(5-chloro-3-fluoro-2-pyridyl)methyl]-4-cyano-anilino]-N-(3-methoxypropylsulfonyl)-5-methyl-thiazole-4-carboxamide]	200 nM	501 nM
COCCCS(=O)(=O)NC(=O)c1nc(N(CCc2ccc(C#N)cc2)Cc2ccc(OC(F)(F)F)cc2)sc1C [Compound 740, 2-[2-(4-cyanophenyl)ethyl-[[4-(trifluoromethoxy)phenyl]methyl]amino]-N-(3-methoxypropylsulfonyl)-5-methyl-thiazole-4-carboxamide]	25.1 nM	1000 nM
COCCCS(=O)(=O)NC(=O)c1nc(N(Cc2cnc(C(F)(F)F)c(OC)c2)c2ccc(C#N)cc2)sc1C [Compound 532, 2-[4-cyano-N-[[5-methoxy-6-(trifluoromethyl)-3-pyridyl]methyl]anilino]-N-(3-methoxypropylsulfonyl)-5-methyl-thiazole-4-carboxamide]	200 nM	1580 nM
Cc1nc(CN(CCc2ccc(Cl)cc2)c2nc(C(=O)NS(C)(=O)=O)c(C)o2)cs1 [Compound 546, 2-[2-(4-chlorophenyl)ethyl-[(2-methylthiazol-4-yl)methyl]amino]-5-methyl-N-methylsulfonyl-oxazole-4-carboxamide]	200 nM	1580 nM
Cc1sc(N(CCc2ccc(Cl)cc2)Cc2ccc(Cl)cn2)nc1C(=O)NS(C)(=O)=O [Compound 158, 2-[2-(4-chlorophenyl)ethyl-[(5-chloro-2-pyridyl)methyl]amino]-5-methyl-N-methylsulfonyl-thiazole-4-carboxamide]	100 nM	631 nM
Cc1sc(N(Cc2ccccc2)c2ccc(OC(F)F)cc2)nc1C(=O)NS(C)(=O)=O [Compound 91, 2-[N-benzyl-4-(difluoromethoxy)anilino]-5-methyl-N-methylsulfonyl-thiazole-4-carboxamide]	100 nM	1580 nM

Now from value to molecule:

EC50 [1]	EC50 (human androgen receptor)	SMILES
> 2000 nM	> 10000 nM	Cc1sc(N(Cc2cccc(=O)[nH]2)c2ccc(C#N)cc2)nc1C(=O)NS(C)(=O)=O [Compound 493, 2-[4-cyano-N-[(6-oxo-1H-pyridin-2-yl)methyl]anilino]-5-methyl-N-methylsulfonyl-thiazole-4-carboxamide]
25.1 nM	20 nM	CS(=O)(=O)NC(=O)c1nc(N(Cc2ccc(Cl)cc2)c2ccc(C#N)cc2)sc1Cl [Example 269, 5-chloro-2-[N-[(4-chlorophenyl)methyl]-4-cyano-anilino]-N-methylsulfonyl-thiazole-4-carboxamide]
50.1 nM	31.6 nM	Cc1sc(N(Cc2cccc(Cl)c2F)c2ccc(C#N)cc2)nc1C(=O)NS(C)(=O)=O [Compound 107, 2-[N-[(3-chloro-2-fluoro-phenyl)methyl]-4-cyano-anilino]-5-methyl-N-methylsulfonyl-thiazole-4-carboxamide]
31.6 nM	31.6 nM	Cc1ccc(CN(c2ccc(C#N)cc2)c2nc(C(=O)NS(C)(=O)=O)c(C)s2)cc1F [Compound 115, 2-[4-cyano-N-[(3-fluoro-4-methyl-phenyl)methyl]anilino]-5-methyl-N-methylsulfonyl-thiazole-4-carboxamide]
31.6 nM	316 nM	Cc1sc(N(Cc2cccc(SC(F)(F)F)c2)c2ccc(C#N)cc2)nc1C(=O)NS(C)(=O)=O [Compound 57, 2-[4-cyano-N-[[3-(trifluoromethylsulfanyl)phenyl]methyl]anilino]-5-methyl-N-methylsulfonyl-thiazole-4-carboxamide]
79.4 nM	794 nM	Cc1sc(N(CCC(C)C)c2ccc(C#N)cc2)nc1C(=O)NS(C)(=O)=O [Compound 66, 2-(4-cyano-N-isopentyl-anilino)-5-methyl-N-methylsulfonyl-thiazole-4-carboxamide]
50.1 nM	158 nM	Cc1sc(N(CCC2CC3CCC2C3)c2ccc(C#N)cc2)nc1C(=O)NS(C)(=O)=O (stereo not drawn) [Compound 482, 2-[4-cyano-N-(2-norbornan-2-ylethyl)anilino]-5-methyl-N-methylsulfonyl-thiazole-4-carboxamide]
251 nM	1580 nM	Cc1sc(N(Cc2ccoc2)c2ccc(C#N)cc2)nc1C(=O)NS(C)(=O)=O [Compound 86, 2-[4-cyano-N-(3-furylmethyl)anilino]-5-methyl-N-methylsulfonyl-thiazole-4-carboxamide]
25.1 nM	158 nM	CCc1oc(N(Cc2ccc(Br)c(F)c2)c2ccc(C#N)cc2)nc1C(=O)NS(C)(=O)=O [Compound 652, 2-[N-[(4-bromo-3-fluoro-phenyl)methyl]-4-cyano-anilino]-5-ethyl-N-methylsulfonyl-oxazole-4-carboxamide]
63.1 nM	1260 nM	CS(=O)(=O)NC(=O)c1nc(N(Cc2ccc(C(F)(F)F)nc2)c2ccc(C#N)cc2)sc1Br [Compound 645, 5-bromo-2-[4-cyano-N-[[6-(trifluoromethyl)-3-pyridyl]methyl]anilino]-N-methylsulfonyl-thiazole-4-carboxamide]
25.1 nM	631 nM	Cc1sc(N(Cc2ccc(OCC(F)(F)F)cc2)c2ccc(C#N)cc2)nc1C(=O)NS(C)(=O)=O [Compound 580, 2-[4-cyano-N-[[4-(2,2,2-trifluoroethoxy)phenyl]methyl]anilino]-5-methyl-N-methylsulfonyl-thiazole-4-carboxamide]
50.1 nM	3160 nM	Cc1sc(N(Cc2cccc(N3CCCCC3)c2)c2ccc(C#N)cc2)nc1C(=O)NS(C)(=O)=O [Example 217, 2-[4-cyano-N-[[3-(1-piperidyl)phenyl]methyl]anilino]-5-methyl-N-methylsulfonyl-thiazole-4-carboxamide]
50.1 nM	31.6 nM	Cc1sc(N(Cc2cc3ccccc3s2)c2ccc(C#N)cc2)nc1C(=O)NS(C)(=O)=O [Compound 51, 2-[N-(benzothiophen-2-ylmethyl)-4-cyano-anilino]-5-methyl-N-methylsulfonyl-thiazole-4-carboxamide]
50.1 nM	100 nM	Cc1sc(N(Cc2ccc3c(c2)OCCO3)c2ccc(C#N)cc2)nc1C(=O)NS(C)(=O)=O [Compound 123, 2-[4-cyano-N-(2,3-dihydro-1,4-benzodioxin-6-ylmethyl)anilino]-5-methyl-N-methylsulfonyl-thiazole-4-carboxamide]
